Results reported in patent US6331520A, “Pharmaceutical compositions of peptides having low solubility in physiological medium” (Applied Research Systems ARS Holding NV, priority 1997, dated 2001).
Values after ≈ are worked out from the molar mass of the structure shown. One block for each molecule: values may come before it. Non-standard residues stand in square brackets, D forms with d. Residues, ends and D or L forms follow the SMILES beside them. *: point of attachment. dPhe(4-Cl) = N[C@H](Cc1ccc(Cl)cc1)C(=O)O; d2Nal = N[C@H](Cc1ccc2ccccc2c1)C(=O)O; Lys(iPr) = CC(C)NCCCC[C@H](N)C(=O)O; d3Pal = N[C@H](Cc1cccnc1)C(=O)O; Nicotinoyl = O=C(c1cccnc1)*

Assays:
Assay type in all cases: physicochemical
[1] = Solubilisation studies for antide: effect of pH (WFI, saline, acids)
Protocol: Solubilisation studies were carried out to study the effect of:
pH (solutions were acidified with either acetic acid or hydrochloric acid)
(§1) Saline used in these studies corresponds to 0.9% sodium chloride solution.
(§2) Following the visual analysis, a number of solutions were selected for further quantitative determination of the solubility by filtration (0.45 μm filters) and appropriate dilution using the RP-HPLC method described above.
Tables 3 to 7 summarise the observations collected in order to obtain information on the solubility behaviour of antide in water for injectables (WFI), WFI acidified by HCl or acetic acid, saline and saline acidified by acetic acid. In agreement with previous studies, the solubility of antide increased as the pH decreased.

[2] = Solubilisation studies for antide: effect of hydrotropic agents in saline; conditions: for Solubility: antide 5 mg/ml added
Excerpt: hydrotropic agents (nicotinamide, sodium saccharin, sodium salicylate, sodium benzoate, histidine hydrochloride, thiamine hydrochloride, phenylalanine).
as §1, §2
The effect of different hydrotropic agents (1.5% & 15% w/w) in saline solutions was also evaluated and is described in Tables 8 and 9.

[3] = Stability of nicotinamide/antide formulations; parameters: Stability (antide found): unit not given here
Protocol: RP-HPLC gradient elution, C-18 (e.g. Vydac 218 TP54, 250×4.6 mm) column. UV detection at 215 nm, injection volume 15 μl, mobile phase A: pH 4.5 phosphate buffer (0.1 M), mobile phase B: acetonitrile, flow rate=1.0 ml/min, runtime=23 min. External standard solution concentrations of 100 μg/ml were injected during analysis. The gradient was: 77% A, 23% B to 52% A, 48% B […].
Four formulations of antide and nicotinamide at different concentration ratios and adjusted to pH 5 were prepared and tested over 3 months at +40° C., +25° C. and +4° C.

[4] = Solubilisation studies for hGRF; conditions: for solubility thermodynamic at 1 week: 0.9% NaCl
Protocol: Solubilisation studies were carried out to study the effect of saline and pH 7 phosphate buffer on the solubility of hGRF.
Qunatitation of the amount of hGRF dissolved was performed by filtration of the equilibrated solution through a 0.45 μm filter prior to dilution and analysis by HPLC.

Solubility ([1]; 10 mg/ml in saline, pH 3.0 or 4.6, 4% acetic acid): not soluble
Solubility ([1]; WFI, 10 mg/ml nominal amount added, pH 4.40): 8130 µg/mL (≈ 5110 µM)
Solubility ([1]; phosphate buffered saline, aqueous buffer, read-out: solubility): 16 µg/mL (≈ 10.1 µM)
Solubility ([1]; saline solution, natural pH 5.04): 25 µg/mL (≈ 15.7 µM)
solubility thermodynamic ([1]; water, without further acidification, read-out: solubility limit): 8100 µg/mL (≈ 5090 µM)
solubilisation ([2]; 1.5% w/w hydrotropic agents in saline, antide 10 mg/ml): not effective
antide solubilised ([2]; 5% nicotinamide in saline): about 0.5 mg/ml
antide solubilised ([2]; 20% nicotinamide in saline): 8.5 mg/mL
Solubility ([2]; saline + 15% nicotinamide, pH 5.79): 3320 µg/mL
Solubility ([2]; saline + 15% sodium benzoate, pH 6.69): 72 µg/mL
Solubility ([2]; saline + 15% sodium salicylate, pH 5.81): 210 µg/mL
Solubility ([2]; saline + 15% thiamine hydrochloride, pH 3.30): 3010 µg/mL
Solubility ([2]; saline + histidine hydrochloride (5%), pH 4.17): 76 µg/mL
Solubility ([2]; saline + phenylalanine (1.7%), pH 4.59): 66 µg/mL
Stability (antide found) ([3]; antide 1 mg/ml, nicotinamide 5%, +4° C., 4W): 0.9
Stability (antide found) ([3]; antide 1 mg/ml, nicotinamide 5%, +4° C., 12W): 1.0
Stability (antide found) ([3]; antide 1 mg/ml, nicotinamide 5%, +25° C., 1W): 0.9
Stability (antide found) ([3]; antide 1 mg/ml, nicotinamide 5%, +25° C., 4W): 0.9
Stability (antide found) ([3]; antide 1 mg/ml, nicotinamide 5%, +25° C., 12W): 1.0
Stability (antide found) ([3]; antide 1 mg/ml, nicotinamide 5%, +40° C., 1W): 1.0
Stability (antide found) ([3]; antide 1 mg/ml, nicotinamide 5%, +40° C., 4W): 0.9
Stability (antide found) ([3]; antide 1 mg/ml, nicotinamide 5%, +40° C., 12W): 1.0
Stability (antide found) ([3]; antide 1 mg/ml, nicotinamide 5%, T = 0): 1.0
Stability (antide found) ([3]; antide 1 mg/ml, nicotinamide 25%, +4° C., 4W): 1.0
Stability (antide found) ([3]; antide 1 mg/ml, nicotinamide 25%, +4° C., 12W): 1.1
Stability (antide found) ([3]; antide 1 mg/ml, nicotinamide 25%, +25° C., 1W): 1.0
Stability (antide found) ([3]; antide 1 mg/ml, nicotinamide 25%, +25° C., 4W): 1.0
Stability (antide found) ([3]; antide 1 mg/ml, nicotinamide 25%, +25° C., 12W): 1.1
Stability (antide found) ([3]; antide 1 mg/ml, nicotinamide 25%, +40° C., 1W): 1.0
Stability (antide found) ([3]; antide 1 mg/ml, nicotinamide 25%, +40° C., 4W): 1.0
Stability (antide found) ([3]; antide 1 mg/ml, nicotinamide 25%, +40° C., 12W): 1.1
Stability (antide found) ([3]; antide 1 mg/ml, nicotinamide 25%, T = 0): 1.0
Stability (antide found) ([3]; antide 10 mg/ml, nicotinamide 5%, +4° C., 1W): 10.3
Stability (antide found) ([3]; antide 10 mg/ml, nicotinamide 5%, +4° C., 4W): 10.0
Stability (antide found) ([3]; antide 10 mg/ml, nicotinamide 5%, +4° C., 12W): 10.5
Stability (antide found) ([3]; antide 10 mg/ml, nicotinamide 5%, +25° C., 1W): gel
Stability (antide found) ([3]; antide 10 mg/ml, nicotinamide 5%, +25° C., 4W): gel
Stability (antide found) ([3]; antide 10 mg/ml, nicotinamide 5%, +25° C., 12W): gel
Stability (antide found) ([3]; antide 10 mg/ml, nicotinamide 5%, +40° C., 1W): gel
Stability (antide found) ([3]; antide 10 mg/ml, nicotinamide 5%, +40° C., 4W): gel
Stability (antide found) ([3]; antide 10 mg/ml, nicotinamide 5%, +40° C., 12W): gel
Stability (antide found) ([3]; antide 10 mg/ml, nicotinamide 5%, T = 0): 9.7
Stability (antide found) ([3]; antide 10 mg/ml, nicotinamide 25%, +4° C., 4W): 10.1
Stability (antide found) ([3]; antide 10 mg/ml, nicotinamide 25%, +25° C., 1W): 9.8
Stability (antide found) ([3]; antide 10 mg/ml, nicotinamide 25%, +25° C., 4W): 9.5
Stability (antide found) ([3]; antide 10 mg/ml, nicotinamide 25%, +25° C., 12W): 11.1
Stability (antide found) ([3]; antide 10 mg/ml, nicotinamide 25%, +40° C., 1W): 10.7
Stability (antide found) ([3]; antide 10 mg/ml, nicotinamide 25%, +40° C., 4W): 9.4
Stability (antide found) ([3]; antide 10 mg/ml, nicotinamide 25%, +40° C., 12W): 10.2
Stability (antide found) ([3]; antide 10 mg/ml, nicotinamide 25%, T = 0): 9.8
chemical degradation ([3]; antide/nicotinamide formulations, after 3 months): No chemical degradation
SMILES: CC(=O)N[C@H](Cc1ccc2ccccc2c1)C(=O)N[C@H](Cc1ccc(Cl)cc1)C(=O)N[C@H](Cc1cccnc1)C(=O)N[C@@H](CO)C(=O)N[C@@H](CCCCNC(=O)c1cccnc1)C(=O)N[C@H](CCCCNC(=O)c1cccnc1)C(=O)N[C@@H](CC(C)C)C(=O)N[C@@H](CCCCNC(C)C)C(=O)N1CCC[C@H]1C(=O)N[C@H](C)C(N)=O [antide] (Ac-[d2Nal][dPhe(4-Cl)][d3Pal]SK(Nicotinoyl)[dK](Nicotinoyl)L[Lys(iPr)]P[dA]-NH2)

solubility thermodynamic at 1 week ([4]; 25° C., one week): 42 µg/mL (≈ 12.5 µM)
solubility thermodynamic at 1 week ([4]; 40° C. for one week): 97 µg/mL (≈ 28.9 µM)
solubility at 1 week ([4]; 25° C., WFI, one week): > 1000 µg/mL
Solubility ([4]; 40° C. for one week, 0.9% NaCl + 5% nicotinamide): 875 µg/mL
solubility thermodynamic at 5 days ([4]; PBS, pH 7, aqueous buffer, 25° C., 5 days): 32 µg/mL (≈ 9.53 µM)
SMILES: CC[C@H](C)[C@H](NC(=O)[C@H](C)NC(=O)[C@H](CC(=O)O)NC(=O)[C@H](C)NC(=O)[C@@H](N)Cc1ccc(O)cc1)C(=O)N[C@@H](Cc1ccccc1)C(=O)N[C@H](C(=O)N[C@@H](CC(N)=O)C(=O)N[C@@H](CO)C(=O)N[C@@H](Cc1ccc(O)cc1)C(=O)N[C@@H](CCCNC(=N)N)C(=O)N[C@@H](CCCCN)C(=O)N[C@H](C(=O)N[C@@H](CC(C)C)C(=O)NCC(=O)N[C@@H](CCC(N)=O)C(=O)N[C@@H](CC(C)C)C(=O)N[C@@H](CO)C(=O)N[C@@H](C)C(=O)N[C@@H](CCCNC(=N)N)C(=O)N[C@@H](CCCCN)C(=O)N[C@@H](CC(C)C)C(=O)N[C@@H](CC(C)C)C(=O)N[C@@H](CCC(N)=O)C(=O)N[C@@H](CC(=O)O)C(=O)N[C@H](C(=O)N[C@@H](CCSC)C(=O)N[C@@H](CO)C(=O)N[C@@H](CCCNC(=N)N)C(N)=O)[C@@H](C)CC)C(C)C)[C@@H](C)O [hGRF, hGRF(1-29)-NH2]
